Test results as given in patent publication US20220324906A1 (Novo Nordisk A/S, priority 2014, published 2022).

Columns and labels:
MuLV virus = assay: Inactivation of MuLV with caprylic acid at different concentrations and pH; details: for Titre of MuLV virus after inactivation with caprylic acid: MuLV content 1.2 × 10^6; for Titre of MuLV after inactivating of MuLV with 60 mM caprylic acid: MuLV content 2.7 × 10^5
From the text: The inactivation of MuLV was investigated at different concentrations of caprylic and at different pH (Table 6).

eMuLV virus = assay: Clearance of spiked eMuLV by chromatography with a caprylic acid wash; details: 30 min
Procedure: A cell line media containing a recombinant human Fab-fragment was filtered through a 0.22 μm and then spiked with eMuLV virus. The spiked media was applied to a column packed with Capto L media (GE-Healthcare). […] Process temperature was 15-25° C. […] A cell line media containing a recombinant human antibody (IgG1) was filtered through a 0.22 μm filter and spiked with eMuLV virus. The spiked media was loaded on a column packed with Protein A (Mab Select SuRe, Ge Healthcare). […] After pH had stabilised the washing continued for 30 min. After 3 other washings (equilibration buffer, 50 mmol/kg phosphate, 1 mol/kg NaCl and then equilibration buffer), the mAb was eluted from the column with a formate buffer, pH 3.5. […] The process temperature was 15-25° C. A cell line media containing a recombinant human antibody (IgG4) was filtered through a 0.22 μm filter and spiked with eMuLV virus. The spiked media was loaded on a column packed with Protein A (Mab Select SuRe, Ge Healthcare). […] After pH had stabilised the washing continued for 30 min. After 3 other washing (equilibration buffer, 50 mmol/kg phosphate, 1 mol/kg NaCl) and then equilibration buffer), the mAb was eluted from the column with a formate buffer, pH 3.5. […] The process temperature was 15-25° C. A cell line media containing a recombinant human antibody (IgG1) was filtered through a 0.22 μm filter and spiked with eMuLV virus. The spiked media was loaded on a column packed with Protein A (Mab Select SuRe, Ge Healthcare). […] After pH had stabilised the washing continued for 30 min. After 3 other washings (equilibration buffer, 50 mmol/kg phosphate, 1 mol/kg NaCl and then equilibration buffer), the mAb was eluted from the column with a formate buffer, pH 3.5. […] The process temperature was 2-8° C.

[1] = 60 mM, pH 6.0, free caprylic acid 4.3 mM, 1 minute
[2] = 60 mM, pH 6.0, free caprylic acid 4.3 mM, 5 minutes
[3] = 60 mM, pH 6.0, free caprylic acid 4.3 mM, 10 minutes
[4] = 60 mM, pH 6.0, free caprylic acid 4.3 mM, 30 minutes

SMILES: CCCCCCCC(=O)O [caprylic acid]
- Titre of MuLV virus after inactivation with caprylic acid (MuLV virus; 10 mM, pH 5.0, free caprylic acid 4.4 mM, 5 minutes): 0
- Titre of MuLV virus after inactivation with caprylic acid (MuLV virus; 10 mM, pH 5.0, free caprylic acid 4.4 mM, 10 minutes): 0
- Titre of MuLV virus after inactivation with caprylic acid (MuLV virus; 10 mM, pH 5.0, free caprylic acid 4.4 mM, 30 minutes): 0
- Titre of MuLV virus after inactivation with caprylic acid (MuLV virus; 20 mM, pH 5.5, free caprylic acid 3.9 mM, 5 minutes): 0
- Titre of MuLV virus after inactivation with caprylic acid (MuLV virus; 20 mM, pH 5.5, free caprylic acid 3.9 mM, 10 minutes): 0
- Titre of MuLV virus after inactivation with caprylic acid (MuLV virus; 20 mM, pH 5.5, free caprylic acid 3.9 mM, 30 minutes): 0
- inactivation of MuLV (MuLV virus; 60 mM caprylic acid, pH range 5.9 to 6.3, within 5 minutes): more than 5.4 log 10
- Titre of MuLV after inactivating of MuLV with 60 mM caprylic acid (MuLV virus; 60 mM, pH 5.9, free caprylic acid 5.3 mM, 5 minutes): 0
- Titre of MuLV after inactivating of MuLV with 60 mM caprylic acid (MuLV virus; 60 mM, pH 5.9, free caprylic acid 5.3 mM, 10 minutes): 0
- Titre of MuLV after inactivating of MuLV with 60 mM caprylic acid (MuLV virus; 60 mM, pH 5.9, free caprylic acid 5.3 mM, 30 minutes): 0
- Titre of MuLV virus after inactivation with caprylic acid (MuLV virus; [1]): 0
- Titre of MuLV after inactivating of MuLV with 60 mM caprylic acid (MuLV virus; [1]): 2.5
- Titre of MuLV virus after inactivation with caprylic acid (MuLV virus; [2]): 0
- Titre of MuLV after inactivating of MuLV with 60 mM caprylic acid (MuLV virus; [2]): 0
- Titre of MuLV virus after inactivation with caprylic acid (MuLV virus; [3]): 0
- Titre of MuLV after inactivating of MuLV with 60 mM caprylic acid (MuLV virus; [3]): 0
- Titre of MuLV virus after inactivation with caprylic acid (MuLV virus; [4]): 0
- Titre of MuLV after inactivating of MuLV with 60 mM caprylic acid (MuLV virus; [4]): 0
- Titre of MuLV after inactivating of MuLV with 60 mM caprylic acid (MuLV virus; 60 mM, pH 6.1, free caprylic acid 3.5 mM, 1 minute): 0
- Titre of MuLV after inactivating of MuLV with 60 mM caprylic acid (MuLV virus; 60 mM, pH 6.1, free caprylic acid 3.5 mM, 5 minutes): 0
- Titre of MuLV after inactivating of MuLV with 60 mM caprylic acid (MuLV virus; 60 mM, pH 6.1, free caprylic acid 3.5 mM, 10 minutes): 0
- Titre of MuLV after inactivating of MuLV with 60 mM caprylic acid (MuLV virus; 60 mM, pH 6.1, free caprylic acid 3.5 mM, 30 minutes): 0
- Titre of MuLV after inactivating of MuLV with 60 mM caprylic acid (MuLV virus; 60 mM, pH 6.2, free caprylic acid 2.8 mM, 5 minutes): 0
- Titre of MuLV after inactivating of MuLV with 60 mM caprylic acid (MuLV virus; 60 mM, pH 6.2, free caprylic acid 2.8 mM, 10 minutes): 0
- Titre of MuLV after inactivating of MuLV with 60 mM caprylic acid (MuLV virus; 60 mM, pH 6.2, free caprylic acid 2.8 mM, 30 minutes): 0
- Titre of MuLV after inactivating of MuLV with 60 mM caprylic acid (MuLV virus; 60 mM, pH 6.3, free caprylic acid 2.2 mM, 5 minutes): 0
- Titre of MuLV after inactivating of MuLV with 60 mM caprylic acid (MuLV virus; 60 mM, pH 6.3, free caprylic acid 2.2 mM, 10 minutes): 0
- Titre of MuLV after inactivating of MuLV with 60 mM caprylic acid (MuLV virus; 60 mM, pH 6.3, free caprylic acid 2.2 mM, 30 minutes): 0
- inactivation of MuLV (MuLV virus; caprylic acid concentrations of about 2 mM, after 30 minutes): partial inactivation
- inactivation of MuLV (MuLV virus; free caprylic acid below 1 mM): no inactivation was observed
- inactivation of MuLV (MuLV virus; pH range 5.0 to 6.0, free caprylic acid at least about 4 mM, after 5 minutes): complete inactivation
- LRV (eMuLV virus; Example 2: IgG1, Protein A, 32 mmol/kg caprylate buffer pH 5.8 (2.9 mM free caprylic acid), 15-25° C.): >3.0
- LRV (eMuLV virus; Example 3: IgG4, Protein A, 32 mmol/kg caprylate buffer pH 5.8 (2.9 mM free caprylic acid), 15-25° C.): >2.8
- LRV (eMuLV virus; Example 4: IgG1, Protein A, 35 mmol/kg caprylate buffer pH 5.7 (3.9 mM free caprylic acid), 2-8° C.): >3.0
